{"source": "patent US20230405028A1", "about": "(priority 2020, published 2023)", "key": {"COX-2": {"tested_on": "COX-2", "assay": "COX-2 in HSIEC cells treated with TNF-α/IFN-γ (western blot, densitometry)", "format": "cell-based, human", "settings": "single agent, escalating doses", "procedure": "(§1) Cell Culture: Human primary small intestinal epithelial cells (HSIEC), purchased from Cell Biologics were cultured in Epithelial Cell Medium/w Kit. HSIEC cells were incubated at 37° C. in a humidified atmosphere of 5% CO2. HSIEC cells were treated with mycoplasma removal reagent BM-Cyclin (Roche) to ensure mycoplasma negative before treatment.\nTo do so, COX-2, an enzyme which mediates the bioconversion of arachidonic acid to inflammatory prostaglandins (PGs), was measured via densitometry. GAPDH was used as a reference housekeeping marker for relative densitometry measures. […] Ethanol or DMSO was used, as indicated in the figures, as a vehicle for dilution and as a negative control showing the amount of the inflammatory marker present when inflammation was not induced.\nIncreasing doses of each molecule of interest, or each combination of molecules of interest, were then distributed to the HSIEC cells treated to induce inflammatory response. Inflammatory markers COX-2 and/or IL-6 were assessed at specific timepoints after induction of inflammation for protein content marker measured via western blot. GAPDH was used as a reference housekeeping marker for relative densitometry measures of protein content."}, "IL-8": {"tested_on": "IL-8", "assay": "IL-8 in HSIEC cells treated with TNF-α/IFN-γ", "format": "cell-based, human", "settings": "single agent, escalating doses"}, "IL-6": {"tested_on": "IL-6", "assay": "IL-6 in HSIEC cells treated with TNF-α/IFN-γ", "format": "cell-based, human", "settings": "single agent, escalating doses", "procedure": "as §1\nInduction of Inflammation in HSIECs and Treatment with Molecules of Interest: HSIEC cells grown to 80% confluence were treated with 10 ng/ml TNF-α/IFN-γ (Sigma) (Yang et al., 2015), for the time points indicated in FIG. 9, to assess the best time point for determination of anti-inflammatory potential of the molecules and formulations of interest. To do so, COX-2, an enzyme which mediates the bioconversion of arachidonic acid to inflammatory prostaglandins (PGs), was measured via densitometry. GAPDH was used as a reference housekeeping marker for relative densitometry measures. […] The anti-inflammatory potential of the molecules and formulations of interest were evaluated at 48 hours post-TNF-α/IFN-γ treatment in the HSIEC assays described below due to reduced variability and ability to assess differences between treatments. Ethanol or DMSO was used, as indicated in the figures, as a vehicle for dilution and as a negative control showing the amount of the inflammatory marker present when inflammation was not induced. […]"}, "[1]": {"tested_on": "Human primary small intestinal epithelial cells (HSIEC)"}}, "note": "Read-outs that look alike come from different tables or passages of the source.", "data": [{"smiles": "Cc1ccc(C(C)C)cc1O", "note": "[carvacrol]", "values": [{"measurement": "doses reducing COX-2 to the greatest extent", "setting": "COX-2", "result": 5, "unit": "µM"}, {"measurement": "doses resulting in reduction of IL-8", "setting": "IL-8", "result": "all doses"}, {"measurement": "doses resulting in reduction of IL-6", "setting": "IL-6", "result": 10, "unit": "µM"}, {"measurement": "effect on cell growth / cellular metabolic activity (MTT, words)", "setting": "[1]", "result": "could only be studied at very low dose"}, {"measurement": "Cellular Metabolic Activity", "setting": "[1]; 5 μM, 24 h", "result": 0.072}, {"measurement": "Cellular Metabolic Activity", "setting": "[1]; 5 μM, 48 h", "result": 0.175}, {"measurement": "Cellular Metabolic Activity", "setting": "[1]; 5 μM, 72 h", "result": 0.261}, {"measurement": "Cellular Metabolic Activity", "setting": "[1]; 5 μM, 96 h", "result": 0.501}, {"measurement": "Cellular Metabolic Activity", "setting": "[1]; 5 μM, time 0", "result": 0.022}, {"measurement": "Cellular Metabolic Activity", "setting": "[1]; 10 μM, 24 h", "result": 0.070}, {"measurement": "Cellular Metabolic Activity", "setting": "[1]; 10 μM, 48 h", "result": 0.164}, {"measurement": "Cellular Metabolic Activity", "setting": "[1]; 10 μM, 72 h", "result": 0.267}, {"measurement": "Cellular Metabolic Activity", "setting": "[1]; 10 μM, 96 h", "result": 0.487}, {"measurement": "Cellular Metabolic Activity", "setting": "[1]; 10 μM, time 0", "result": 0.021}, {"measurement": "Cellular Metabolic Activity", "setting": "[1]; 20 μM, 24 h", "result": 0.071}, {"measurement": "Cellular Metabolic Activity", "setting": "[1]; 20 μM, 48 h", "result": 0.171}, {"measurement": "Cellular Metabolic Activity", "setting": "[1]; 20 μM, 72 h", "result": 0.266}, {"measurement": "Cellular Metabolic Activity", "setting": "[1]; 20 μM, 96 h", "result": 0.461}, {"measurement": "Cellular Metabolic Activity", "setting": "[1]; 20 μM, time 0", "result": 0.022}, {"measurement": "Cellular Metabolic Activity", "setting": "[1]; 40 μM, 24 h", "result": 0.070}, {"measurement": "Cellular Metabolic Activity", "setting": "[1]; 40 μM, 48 h", "result": 0.159}, {"measurement": "Cellular Metabolic Activity", "setting": "[1]; 40 μM, 72 h", "result": 0.272}, {"measurement": "Cellular Metabolic Activity", "setting": "[1]; 40 μM, 96 h", "result": 0.544}, {"measurement": "Cellular Metabolic Activity", "setting": "[1]; 40 μM, time 0", "result": 0.022}, {"measurement": "Cellular Metabolic Activity", "setting": "[1]; 80 μM, 24 h", "result": 0.076}, {"measurement": "Cellular Metabolic Activity", "setting": "[1]; 80 μM, 48 h", "result": 0.120}, {"measurement": "Cellular Metabolic Activity", "setting": "[1]; 80 μM, 72 h", "result": 0.221}, {"measurement": "Cellular Metabolic Activity", "setting": "[1]; 80 μM, 96 h", "result": 0.423}, {"measurement": "Cellular Metabolic Activity", "setting": "[1]; 80 μM, time 0", "result": 0.025}, {"measurement": "Cellular Metabolic Activity", "setting": "[1]; 100 μM, 24 h", "result": 0.069}, {"measurement": "Cellular Metabolic Activity", "setting": "[1]; 100 μM, 48 h", "result": 0.106}, {"measurement": "Cellular Metabolic Activity", "setting": "[1]; 100 μM, 72 h", "result": 0.259}, {"measurement": "Cellular Metabolic Activity", "setting": "[1]; 100 μM, 96 h", "result": 0.397}, {"measurement": "Cellular Metabolic Activity", "setting": "[1]; 100 μM, time 0", "result": 0.026}, {"measurement": "Cellular Metabolic Activity", "setting": "[1]; 200 μM, 24 h", "result": 0.061}, {"measurement": "Cellular Metabolic Activity", "setting": "[1]; 200 μM, 48 h", "result": 0.088}, {"measurement": "Cellular Metabolic Activity", "setting": "[1]; 200 μM, 72 h", "result": 0.179}, {"measurement": "Cellular Metabolic Activity", "setting": "[1]; 200 μM, 96 h", "result": 0.238}, {"measurement": "Cellular Metabolic Activity", "setting": "[1]; 200 μM, time 0", "result": 0.027}, {"measurement": "Cellular Metabolic Activity", "setting": "[1]; 400 μM, 24 h", "result": 0.062}, {"measurement": "Cellular Metabolic Activity", "setting": "[1]; 400 μM, 48 h", "result": 0.079}, {"measurement": "Cellular Metabolic Activity", "setting": "[1]; 400 μM, 72 h", "result": 0.139}, {"measurement": "Cellular Metabolic Activity", "setting": "[1]; 400 μM, 96 h", "result": 0.137}, {"measurement": "Cellular Metabolic Activity", "setting": "[1]; 400 μM, time 0", "result": 0.027}]}]}
